Assay results published in patent US8772237B2, “Compositions and methods for counteracting effects of reactive oxygen species and free radicals” (Ischemix, Inc., priority 1999, dated 2014).
Ends that are not written are not given here.

Legend:
Format in all cases: cell-based
SOD-1 mRNA = assay: RT-PCR upregulation of SOD-1 mRNA in rat primary myocyte cultures; details: rat primary myocytes, 3-hour incubation
Procedure: Primary cultures of rat brain cortical cells were incubated with 100 ng/ml of peptide compound CMX-9236 for durations of 0 to 48 hours. mRNA was isolated from the cytoplasmic fraction of lysed cells according to standard methods (Angel et al., Cell 49:729-739, 1987). The RNA was incubated according to the RT-PCR protocol with two strands, 20 nucleotides long, one for the sense and one from the antisense strand. The sequences were selected to be unique for superoxide dismutase-1 (SOD-1), and to span one intron segment. […] The sequence of the two probe segments of the oligo dT segments for SOD are as follows: anti-sense strand, […] (SEQ ID NO:29), and sense strand, […] (SEQ ID NO:30). These span a sequence of 208 base pairs (bp) on the primary SOD sequence. The mixture was then treated with reverse transcriptase to obtain the cDNA according to standard PCR methods. The cDNA was then analyzed by electrophoresis and separated according to sequence lengths on a non-denaturing 5% polyacrylamide gel. The electrophoretically separated molecules were treated with ethidium bromide to stain double-stranded DNA fragments. […] The gels were then analyzed by a laser scanning fluorescence detector to quantitate the amount of messenger RNA for the extent of upregulation of SOD message and its time course of synthesis as a function of stimulation by CMX-9236. […]

catalase (CAT) mRNA = assay: RT-PCR upregulation of catalase (CAT) mRNA in primary rat cortical cultures; details: 100 ng/ml
Description: Peptide compounds of the invention may also upregulate mRNA for catalase (CAT). Experiments using the RT-PCR methods to detect upregulation of CAT mRNA in primary rat cortical brain cultures treated with various representative peptide compounds, i.e., CMX-9236, CMX-9963, and CMX-9967. The catalase probe duplex consisted of a sense primer having the sequence […] (SEQ ID NO:31) and antisense primer having the sequence […] (SEQ ID NO:32) flanking a 95 bp region of the CAT DNA.
Primary rat brain cortical cell cultures were incubated with 100 ng/ml of the peptide compound CMX-9236 for 0, 0.5, 1, 2, 3, 6, 12, 24, and 48 hours. […] The upregulation of CAT mRNA was maximal at 3 hours after the addition of the peptide compound, and it decreased back to control levels at 48 hours. GAPDH was the internal standard in these experiments. […] A 13-fold increase in CAT mRNA levels was observed (over control) of CAT mRNA occurred when primary rat brain cortical cultures were incubated with 100 ng/ml of CMX-9236 for 3 hours.

catalase (CAT) protein = assay: Western immunoblot of CAT protein in rat primary cortical cultures; details: Dose 67 pmol/ml, 5 hours at 37° C.
Procedure: (§1) Tissue culture experiments were carried out using primary cultures of rat brain cortical cells as previously described above in Example 2. Primary cultures from embryonic rat brain isolated at E-21 (21 day embryos) and incubated for five hours with various doses: 1, 10, 100 ng/ml of CMX-99672. Cytoplasmic proteins were isolated and analyzed for upregulation of SOD and CAT by Western immunoblots as described above. […] The Western blot was scanned to quantify the fold-increase in SOD production in cell cultures treated with the CMX-99672 peptide compound.
(§2) Representative peptide compounds were tested at various doses and compared for their ability to upregulate expression of genes for SOD and/or CAT in rat primary cortical cultures basically as described above. Cultures were incubated with a peptide compound for 5 hours at 37° C. Cytoplasmic protein fractions were prepared as described above. Cytoplasmic proteins were separated by gel electrophoresis and analyzed by Western immunoblots using antisera to SOD and CAT, respectively (Rockland, Inc., Gilbertsville, Pa.).

[1] = test system: superoxide dismutase-1 (SOD-1) mRNA; assay: RT-PCR upregulation of SOD-1 mRNA in rat primary cortical cell cultures; details: 100 ng/ml
Procedure: The RT-PCR method (see, for example, Innis et al., PCR Protocols: A Guide to Methods and Applications, (Academic Press, San Diego, 1990)) was used to investigate the upregulation of the specific mRNA that codes for the enzyme superoxide dismutase (SOD).
(§3) Primary cortical cultures were obtained by growing newborn rat brain cortical cells in Delbecco's modified Eagle medium supplemented with 25 μg/ml of gentamycin and 10% fetal calf serum. The cells were isolated from the E-21 cortex of rat brain, plated at a density of 1×10^5 per ml and grown to confluence within four to five days in an atmosphere containing air and 5% CO2 at 37° C. as described in Cornell-Bell et al., Science, 247: 470-473 (1990) and Cell Calcium, 12: 185-204 (1991). Cultures were grown in 20 ml flasks as a monolayer and then exposed to various concentrations of peptides for studies of the effects of peptides on upregulation of genes for SOD and CAT and on the transmigration of transcription factor AP-1 to cell nuclei.
Primary cultures of rat brain cortical cells were incubated with 100 ng/ml of peptide compound CMX-9236 for durations of 0 to 48 hours. mRNA was isolated from the cytoplasmic fraction of lysed cells according to standard methods (Angel et al., Cell 49:729-739, 1987). The RNA was incubated according to the RT-PCR protocol with two strands, 20 nucleotides long, one for the sense and one from the antisense strand. The sequences were selected to be unique for superoxide dismutase-1 (SOD-1), and to span one intron segment. […] The sequence of the two probe segments of the oligo dT segments for SOD are as follows: anti-sense strand, […] (SEQ ID NO:29), and sense strand, […] (SEQ ID NO:30). These span a sequence of 208 base pairs (bp) on the primary SOD sequence. The mixture was then treated with reverse transcriptase to obtain the cDNA according to standard PCR methods. The cDNA was then analyzed by electrophoresis and separated according to sequence lengths on a non-denaturing 5% polyacrylamide gel. The electrophoretically separated molecules were treated with ethidium bromide to stain double-stranded DNA fragments. These were visualized by ultraviolet illumination and photographed. The gels were then analyzed by a laser scanning fluorescence detector to quantitate the amount of messenger RNA for the extent of upregulation of SOD message and its time course of synthesis as a function of stimulation by CMX-9236. Similar methods of analysis were used for other peptides.

[2] = test system: superoxide dismutase (SOD) protein; assay: Western immunoblot of SOD protein in rat brain primary cortical cultures; details: Dose 6.7 pmol/ml, 5 hours at 37° C.
Procedure: as §3, with “nuclei. […]” for “nuclei.”
as §1
as §2, with “Pa.). […]” for “Pa.).”

KKDGDGDFAIDAPE [CMX-9236, uncapped peptide]
upregulation of SOD mRNA (SOD-1 mRNA; 1 ng/ml): 3 fold | upregulation of SOD-1 mRNA transcripts (SOD-1 mRNA; 10-100 ng/ml): about 6 fold | time at which CAT mRNA decreased back to control levels (catalase (CAT) mRNA): 48 h | time of maximal upregulation of CAT mRNA after addition (catalase (CAT) mRNA): 3 h | increase in CAT mRNA levels over control (catalase (CAT) mRNA; 3 hours): 13 fold | CAT (catalase (CAT) protein): 652 % Control | time until SOD-1 mRNA stimulation returns to control levels [1]: ≤ 24 h | upregulation of SOD-1 mRNA transcripts ([1]; rat primary cortical cells, 3 hours incubation): 9 fold | SOD [2]: 466 % Control
